According to patent publication US7427680B2, “Fluorogenic substrates for BETA-lactamase gene expression” (The Regents of the University of California, priority 2001, dated 2008):

Columns and labels:
[1] = molecular target: Bla (Escherichia coli, UniProt P62593); details: cited from earlier work
[2] = test system: Bla-stably-transfected C6 glioma cells; assay: Fluorescence imaging of Bla activity in living cells; type: cell-based; details: loaded in Hank's Balanced Salts Solution 25 min, room temperature; excitation 540/25, emission 635/55
Method: FIG. 13A illustrates the structures of CR2 and CR2/AM. FIG. 13B presents fluorescence images (40×magnification) of wild type (right) and Bla-stably-transfected (left) C6 glioma cells loaded with CR2/AM in Hank's Balanced Salts Solution for 25 min at room temperature. The excitation filter was set at 540/25 (540 nm peak with a width of 25 nm around the peak). The emission filter was set at 635/55.

Bla, sequence (P62593 24-286 limits assumed): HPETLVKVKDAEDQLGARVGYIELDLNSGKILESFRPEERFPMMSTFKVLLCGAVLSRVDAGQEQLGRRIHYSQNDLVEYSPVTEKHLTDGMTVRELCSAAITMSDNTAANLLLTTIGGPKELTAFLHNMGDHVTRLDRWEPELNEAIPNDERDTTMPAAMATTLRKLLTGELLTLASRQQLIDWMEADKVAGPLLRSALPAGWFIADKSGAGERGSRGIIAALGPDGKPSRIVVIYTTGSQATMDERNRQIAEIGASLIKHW

In the case of `O=C(CNC(=O)c1cc2cc(Cl)c(O)cc2oc1=O)N[C@@H]1C(=O)N2C(C(=O)O)=C(CSc3ccc4c(c3)C(=O)OC43c4ccc(O)cc4Oc4cc(O)ccc43)CS[C@H]12` [CCF2], the Km ([1]; Zlokarnik et al., Science 1998) is given as 23 µM, the kcat ([1]; Zlokarnik et al., Science 1998) is given as 29 s⁻¹ and the “enhancement of fluorescent emission” value ([1]; at similar wavelengths (about 460 nm)) is given as 20 fold.
With `CC(=O)OCOC(=O)C1=C(/C=C\COc2ccc3nc4ccc(=O)cc-4oc3c2)C[S@H](O)[C@@H]2[C@H](NC(=O)Cc3cccs3)C(=O)N12` [CR2/AM] the “imaging of Bla activity in living cells” value [2] was “able to image the Bla activity”.
